For one assay, the system named is Escherichia coli. In words: Genotoxicity (SOSIP) on Escherichia coli PQ37 (SOS induction potential data, as a measure of genotoxicity). The assay is classed as functional.
The subject of assay [1] is Salmonella typhimurium. In words: Mutagenicity in Salmonella Typhimurium TA100 was determined. The assay is classed as functional, Salmonella enterica subsp. enterica serovar Typhimurium.
For assay [2], the system named is Salmonella typhimurium. The experiment in a line: Mutagenicity in Salmonella Typhimurium TA98 was determined. The assay is classed as functional, Salmonella enterica subsp. enterica serovar Typhimurium.
Assay [3] concerns Salmonella typhimurium. The experiment in a line: Mutagenicity inSalmonella Typhimurium TA100 was determined. The assay is classed as functional, Salmonella enterica subsp. enterica serovar Typhimurium.
For assay [4], the system named is Salmonella typhimurium. In words: Mutagenicity inSalmonella Typhimurium TA98 was determined. The assay is classed as functional, Salmonella enterica subsp. enterica serovar Typhimurium.

The values below come from ChEMBL document CHEMBL1126635, “Mechanistic interpretation of the genotoxicity of nitrofurans (antibacterial agents) using quantitative structure-activity relationships and comparative molecular field analysis” (J Med Chem, 1993).

Each structure is given as a SMILES string.

Consider `O=[N+]([O-])c1cc2cc3c(cc2o1)CCCC3`, for which the “Log SOSIP” value in the assay with Escherichia coli is listed as 2.25. Also, the “Log TA100” value in the assay with Salmonella typhimurium [1] stood at 3.11. Moreover, the “Log TA98” value in the assay with Salmonella typhimurium [2] was found to be 2.63.

On to `COc1cc2oc([N+](=O)[O-])cc2c2ccccc12`, for which, in the assay with Escherichia coli, the “Log SOSIP” value is listed as 3.86. For the same compound, in the assay on Salmonella typhimurium [1], the “Log TA100” value is 3.59. Further, the “Log TA98” value in the assay on Salmonella typhimurium [2] is 3.28.

In the case of `O=[N+]([O-])c1cc2cc3ccc4cccc5ccc(c2o1)c3c45`, the “Log SOSIP” value with Escherichia coli was 3.72.

On to `Cc1c([N+](=O)[O-])oc2cc3c(cc12)CCCC3`, for which the “Log SOSIP” value in the assay with Escherichia coli was 3.41. Moreover, in the assay with Salmonella typhimurium [1], the “Log TA100” value is reported as 4.54. Besides, in the assay with Salmonella typhimurium [2], the “Log TA98” value is given as 3.32.

As to `Cc1c([N+](=O)[O-])oc2c3c(ccc12)CCCC3`, the “Log SOSIP” value in the assay with Escherichia coli stood at 3.28. For the same compound, the “Log TA100” value with Salmonella typhimurium [1] is on record as 4.38. In the assay on Salmonella typhimurium [2], the “Log TA98” value is on record as 2.46.

In the case of `O=[N+]([O-])c1cc2c(ccc3cc4ccccc4cc32)o1`, the “Log SOSIP” value with Escherichia coli is listed as 4.87. The “Log TA98” value in the assay with Salmonella typhimurium [2] amounted to 3.95.

Regarding `CCCCc1c([N+](=O)[O-])oc2ccc3ccccc3c12`, in the assay with Escherichia coli, the “Log SOSIP” value is recorded as 4.28.

Turning to `COc1ccc2ccc3oc([N+](=O)[O-])cc3c2c1Br`, the “Log SOSIP” value with Escherichia coli was found to be 4.46.

As for `CC(=O)Cc1c([N+](=O)[O-])oc2ccc3ccccc3c12`, the “Log SOSIP” value in the assay with Escherichia coli turned out to be 3.43.

Take `O=[N+]([O-])c1cc2c(cc3ccc4cccc5ccc2c3c45)o1`: in the assay with Escherichia coli, the “Log SOSIP” value was determined as 5.

For `COC(=O)Cc1ccc2c(ccc3oc([N+](=O)[O-])cc32)c1`, the “Log SOSIP” value with Escherichia coli is 3.18.

As for `CCc1c([N+](=O)[O-])oc2ccc3ccccc3c12`, in the assay with Escherichia coli, the “Log SOSIP” value is recorded as 4.32. In addition, the “Log TA98” value with Salmonella typhimurium [2] was determined as 4.18.

As to `CC(C)c1c([N+](=O)[O-])oc2ccc3ccccc3c12`, the “Log SOSIP” value with Escherichia coli came out at 3.74.

Turning to `COc1ccc2ccc3oc([N+](=O)[O-])cc3c2c1`, the “Log SOSIP” value in the assay with Escherichia coli was found to be 4.25. For the same compound, in the assay with Salmonella typhimurium [1], the “Log TA100” value was determined as 5.58. In the assay with Salmonella typhimurium [2], the “Log TA98” value is recorded as 4.75.

Take `CC(=O)c1ccc2c(ccc3oc([N+](=O)[O-])cc32)c1`: in the assay on Escherichia coli, the “Log SOSIP” value is recorded as 3.72.

As to `O=[N+]([O-])c1cc2ccc3cc4ccccc4cc3c2o1`, the “Log SOSIP” value with Escherichia coli was 4.08. In the assay on Salmonella typhimurium [2], the “Log TA98” value amounted to 3.88.

In the case of `O=[N+]([O-])c1cc2cc3ccccc3c(Br)c2o1`, in the assay with Escherichia coli, the “Log SOSIP” value is 3.04. Further, the “Log TA100” value in the assay on Salmonella typhimurium [1] was 2.67. For the same compound, in the assay with Salmonella typhimurium [2], the “Log TA98” value worked out at 3.31.

For `COc1ccc2cc3c(ccc4oc([N+](=O)[O-])cc43)cc2c1`, in the assay with Escherichia coli, the “Log SOSIP” value is 4.77. Moreover, the “Log TA98” value with Salmonella typhimurium [2] was found to be 4.86.

Consider `O=[N+]([O-])c1oc2ccc3ccccc3c2c1-c1ccccc1`, for which, in the assay with Escherichia coli, the “Log SOSIP” value amounted to 4.43.

As for `COc1ccc2ccc3oc([N+](=O)[O-])cc3c2c1OC`, the “Log SOSIP” value in the assay on Escherichia coli is 4.2.

For the compound `Cc1c([N+](=O)[O-])oc2ccc3ccccc3c12`, in the assay with Escherichia coli, the “Log SOSIP” value was 4.91. In addition, in the assay with Salmonella typhimurium [1], the “Log TA100” value was found to be 6.71. In the assay with Salmonella typhimurium [2], the “Log TA98” value was determined as 4.91.

With `Cc1c([N+](=O)[O-])oc2ccc3cc(Br)ccc3c12`, in the assay with Escherichia coli, the “Log SOSIP” value came to 4.81.

For `Cc1c([N+](=O)[O-])oc2ccccc12`, the “Log SOSIP” value in the assay with Escherichia coli was found to be 1.2. Also, the “Log TA100” value in the assay on Salmonella typhimurium [1] came to 3.7.

Consider `COc1ccc2oc(-c3ccc([N+](=O)[O-])o3)cc2c1`, for which the “Log SOSIP” value in the assay on Escherichia coli is given as 3.08.

For the compound `O=[N+]([O-])c1oc2ccc3ccccc3c2c1CCO`, in the assay with Escherichia coli, the “Log SOSIP” value is 3.78. Further, the “Log TA98” value in the assay on Salmonella typhimurium [2] is reported as 3.59.

As for `Cc1c([N+](=O)[O-])oc2ccc3c(c12)CCCC3`, the “Log SOSIP” value in the assay with Escherichia coli was 2.11. For the same compound, the “Log TA100” value in the assay on Salmonella typhimurium [1] is listed as 3.78. Also, the “Log TA98” value in the assay with Salmonella typhimurium [2] came out at 3.08.

Take `O=[N+]([O-])c1cc2c(ccc3ccccc32)o1`: the “Log SOSIP” value in the assay with Escherichia coli amounted to 3.96. Besides, the “Log TA100” value in the assay on Salmonella typhimurium [3] turned out to be 4.31. In the assay on Salmonella typhimurium [4], the “Log TA98” value came out at 3.33.

With `COc1ccc2c(ccc3oc([N+](=O)[O-])c(C)c32)c1`, in the assay with Escherichia coli, the “Log SOSIP” value turned out to be 4.7.

Take `O=[N+]([O-])c1cc2c(ccc3cc(Br)ccc32)o1`: the “Log SOSIP” value with Escherichia coli stood at 4.64. In addition, in the assay with Salmonella typhimurium [1], the “Log TA100” value worked out at 4.16. The “Log TA98” value in the assay on Salmonella typhimurium [2] came to 3.61.

In the case of `CC(=O)Oc1ccc2c(ccc3oc([N+](=O)[O-])cc32)c1`, the “Log SOSIP” value in the assay on Escherichia coli amounted to 3.

In the case of `COc1cccc2cc3cc([N+](=O)[O-])oc3cc12`, in the assay on Escherichia coli, the “Log SOSIP” value worked out at 2.96. Further, in the assay with Salmonella typhimurium [1], the “Log TA100” value was 3.07. The “Log TA98” value with Salmonella typhimurium [2] turned out to be 3.44.

Regarding `Cc1c([N+](=O)[O-])oc2c1ccc1ccccc12`, in the assay on Escherichia coli, the “Log SOSIP” value is given as 4.34.

`O=[N+]([O-])c1cc2c(ccc3cc(O)ccc32)o1`: in the assay with Escherichia coli, the “Log SOSIP” value turned out to be 3.58.

For `O=[N+]([O-])c1cc2ccc3c(c2o1)CCCC3`, the “Log SOSIP” value in the assay on Escherichia coli is recorded as 1.93. Moreover, the “Log TA100” value in the assay on Salmonella typhimurium [1] turned out to be 2.95. For the same compound, the “Log TA98” value with Salmonella typhimurium [2] is listed as 2.59.

Turning to `COc1ccc2oc([N+](=O)[O-])cc2c1`, the “Log SOSIP” value with Escherichia coli was 1.89. The “Log TA100” value with Salmonella typhimurium [1] was 2.8. The “Log TA98” value with Salmonella typhimurium [2] turned out to be 1.74.

With `COc1ccc2c(C)c([N+](=O)[O-])oc2c1`, the “Log SOSIP” value in the assay on Escherichia coli is listed as 2.28. The “Log TA100” value with Salmonella typhimurium [1] was determined as 3.54.

As to `O=[N+]([O-])c1cc2c3c(ccc2o1)CCCC3`, the “Log SOSIP” value in the assay on Escherichia coli turned out to be 2.08. Besides, the “Log TA100” value in the assay on Salmonella typhimurium [1] is reported as 2.81. Further, in the assay on Salmonella typhimurium [2], the “Log TA98” value amounted to 2.11.

In the case of `Cc1ccc2c(ccc3oc([N+](=O)[O-])cc32)c1`, in the assay with Escherichia coli, the “Log SOSIP” value stood at 3.95.

In the case of `Cc1c([N+](=O)[O-])oc2cc3ccccc3cc12`, the “Log SOSIP” value in the assay with Escherichia coli is reported as 3.34.

As to `O=[N+]([O-])c1cc2ccccc2o1`, the “Log SOSIP” value in the assay on Escherichia coli is given as 1.53. The “Log TA100” value in the assay on Salmonella typhimurium [1] was 1.54. Besides, the “Log TA98” value with Salmonella typhimurium [2] was found to be 1.3.

Consider `COc1ccc2c(ccc3oc([N+](=O)[O-])cc32)c1Br`, for which the “Log SOSIP” value in the assay on Escherichia coli turned out to be 3.43.

For the compound `COc1cc2cc([N+](=O)[O-])oc2c2ccccc12`, the “Log SOSIP” value in the assay with Escherichia coli is 3.45. In addition, the “Log TA100” value in the assay with Salmonella typhimurium [1] is 4.26. The “Log TA98” value in the assay with Salmonella typhimurium [2] is on record as 3.25.

On to `CCOC(=O)COc1ccc2c(ccc3oc([N+](=O)[O-])cc32)c1`, for which, in the assay on Escherichia coli, the “Log SOSIP” value is 3.18.

Take `COc1cc2ccccc2c2cc([N+](=O)[O-])oc12`: the “Log SOSIP” value with Escherichia coli was determined as 4.04. For the same compound, the “Log TA100” value in the assay on Salmonella typhimurium [1] is given as 4.66. The “Log TA98” value in the assay on Salmonella typhimurium [2] was found to be 4.2.

On to `COc1ccc2c(ccc3oc([N+](=O)[O-])cc32)c1`, for which the “Log SOSIP” value in the assay on Escherichia coli is 4.23. The “Log TA100” value in the assay with Salmonella typhimurium [1] is 5.31. In the assay with Salmonella typhimurium [2], the “Log TA98” value came out at 4.9.

As to `O=[N+]([O-])c1cc2cc(Cl)c3ccccc3c2o1`, the “Log SOSIP” value in the assay on Escherichia coli is recorded as 2.97. The “Log TA100” value in the assay on Salmonella typhimurium [1] is 3.96. In addition, the “Log TA98” value with Salmonella typhimurium [2] worked out at 3.82.
